Measurements as given in publication PMC12137140, “The fast-evolving FIKK kinase family of Plasmodium falciparum can be inhibited by a single compound” (Nature Microbiology, 2025).

How the values were obtained:
[1] = biological target: T1, FIKK8 (Plasmodium falciparum, UniProt C0H4R8); assay: biochemical; parameters: ADP-Glo luminescence kinase assay, recombinant FIKK8 kinase domain, Po peptide substrate plus ATP, four-parameter IC50 fit
T1 construct: gene PF3D7_0805700; recombinant FIKK8 kinase domain
Experimental: Columns 6 and 18 of the microplates served as controls. Column 6 was a positive control (recombinant FIKK8 kinase domain + Po peptide ([…])[22] + ATP without compounds). Column 18 was a negative control (recombinant FIKK8 kinase domain + Po peptide − ATP). First, 3 µl kinase at 40 nM in kinase reaction buffer (20 mM MOPS, 10 mM magnesium chloride and 10 mM manganese chloride, pH 7.4 (Alfa Aesar)) was dispensed in each well using a Multidrop Combi Reagent dispenser (Thermo Fisher Scientific). Recombinant FIKK8 kinase domain was left to incubate in the presence of compounds for 15 min at room temperature. Then, 3 µl Po peptide + ATP at 20 µM each, diluted in kinase reaction buffer, was dispensed in each well except in column 18 in which 3 µl of peptide without ATP was dispensed. The kinase reaction was left to occur for 1 h and was stopped with 6 µl ADP-Glo reagent. Kinase activity was assessed after addition of 12 µl kinase detection reagent by measuring luminescence on a multimode microplate reader FLUOstar Omega (BMG Labtech).

[2] = biological target: T2, FIKK13 (Plasmodium falciparum, UniProt A0A143ZWL4); assay: ADP-Glo kinase assay, % inhibition heat map (n = […]); assay type: biochemical
T2 construct: gene PF3D7_1371700; recombinant kinase domain

[3] = biological target: T3, FIKK1 (Plasmodium falciparum, UniProt B9ZSH8); assay: as above; assay type: biochemical
T3 construct: gene PF3D7_0102600; recombinant kinase domain
T3 sequence (B9ZSH8 entry or part of it): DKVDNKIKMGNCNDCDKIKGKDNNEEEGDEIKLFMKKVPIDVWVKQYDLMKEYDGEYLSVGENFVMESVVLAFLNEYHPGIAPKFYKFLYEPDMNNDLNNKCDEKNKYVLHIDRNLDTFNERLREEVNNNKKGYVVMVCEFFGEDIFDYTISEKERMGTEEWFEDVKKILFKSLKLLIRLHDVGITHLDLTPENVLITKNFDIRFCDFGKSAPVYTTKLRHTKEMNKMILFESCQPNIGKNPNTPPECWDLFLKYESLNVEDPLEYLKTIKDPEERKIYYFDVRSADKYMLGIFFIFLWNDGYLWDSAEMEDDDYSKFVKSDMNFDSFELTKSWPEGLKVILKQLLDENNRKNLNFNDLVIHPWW

T1 sequence (C0H4R8 entry or part of it): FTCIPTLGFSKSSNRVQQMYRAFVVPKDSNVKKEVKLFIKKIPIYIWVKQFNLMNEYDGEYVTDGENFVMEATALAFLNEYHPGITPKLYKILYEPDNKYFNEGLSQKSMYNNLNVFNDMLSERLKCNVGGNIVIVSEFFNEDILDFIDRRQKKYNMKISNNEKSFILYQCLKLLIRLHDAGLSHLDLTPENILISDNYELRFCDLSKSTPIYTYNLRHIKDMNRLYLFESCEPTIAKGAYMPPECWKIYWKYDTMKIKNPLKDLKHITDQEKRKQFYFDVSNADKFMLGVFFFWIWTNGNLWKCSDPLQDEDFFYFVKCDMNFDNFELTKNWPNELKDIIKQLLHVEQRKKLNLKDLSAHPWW
T2 sequence (A0A143ZWL4 entry or part of it): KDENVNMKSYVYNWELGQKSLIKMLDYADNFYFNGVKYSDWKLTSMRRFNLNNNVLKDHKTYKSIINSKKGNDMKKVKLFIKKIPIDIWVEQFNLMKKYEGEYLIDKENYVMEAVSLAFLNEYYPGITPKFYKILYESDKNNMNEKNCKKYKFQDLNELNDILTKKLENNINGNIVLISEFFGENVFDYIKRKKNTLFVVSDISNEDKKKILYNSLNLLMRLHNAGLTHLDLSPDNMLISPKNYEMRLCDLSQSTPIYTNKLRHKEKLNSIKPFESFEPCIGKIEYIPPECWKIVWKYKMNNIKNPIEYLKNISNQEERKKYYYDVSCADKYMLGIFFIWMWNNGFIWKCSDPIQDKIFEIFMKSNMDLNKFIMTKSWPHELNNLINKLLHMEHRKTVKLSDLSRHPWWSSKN

Structure (SMILES) | IC50 [1] | ADP-Glo kinase assay, % inhibition heat map (n = 3) [2] | ADP-Glo kinase assay, % inhibition heat map (n = 3) [3]
COc1ccc(Nc2ncc(C#N)c(Nc3ccccc3C(N)=O)n2)cc1N1CCN(C)CC1 [GSK1558669A] | 0.089 ± 0.037 µM |  | 
CN1CCC(n2cnc(-c3ccc(F)cc3)c2-c2ccnc(NC3CCNCC3)n2)CC1 [SB-229482] | 0.024 ± 0.0017 µM |  | 
O=c1[nH]ccc2nc(N[C@@H]3CCNC3)nc(Nc3ccc4c(c3)S(=O)(=O)CC4)c12 [GSK2181306A] | 0.031 ± 0.0016 µM |  | 
O=c1[nH]ccc2nc(N[C@@H]3CCNC3)nc(Nc3cc(Cl)cc(Cl)c3)c12 [GSK2188764A] | 0.06 ± 0.0098 µM |  | 
CCNc1nccc(-c2c(-c3ccc(F)cc3)ncn2C2CCN(C)CC2)n1 [SB-226605] | 0.098 ± 0.0066 µM |  | 
O=C(Nc1n[nH]c2nnc(-c3cccnc3)cc12)C1CC1 [SB-675259-M] | 0.168 ± 0.021 µM |  | 
CCN1CCC(CC(=O)Nc2n[nH]c3nc(-c4cccs4)c(Br)cc23)CC1 [SB-739245-AC] | 0.238 ± 0.028 µM |  | 
Cc1cc(O)c2c(c1)C(=O)c1cc(O)cc(O)c1C2=O [Emodin] |  | showed potency against all PfFIKKs (Fig. 6d) | showed potency against all PfFIKKs (Fig. 6d)
Cc1cccc(Nc2nc(N[C@H]3CCNC3)ncc2C(N)=O)c1 [GSK2197149A] | 0.315 ± 0.052 µM |  | 
CCN(CC)Cc1ccc(Nc2nccc(-c3cnn4ncccc34)n2)cc1 [GW780056X] | 0.332 ± 0.088 µM |  | 
O=c1[nH]ccc2nc(N[C@@H]3CCCNC3)nc(Nc3ccc(S(=O)(=O)N4CCOCC4)cc3)c12 [GSK2177277A] | 0.048 ± 0.0044 µM |  | 
CN1CCC(n2cnc(-c3ccc(F)cc3)c2-c2ccnc(NCCO)n2)CC1 [SB-226879] | 0.176 ± 0.02 µM |  | 
